Several values for one entry are separate records, joined by “and”; a condition that tells them apart may be missing. Equal entries are not always repeated.

Usually viability, T/C stands for the ratio of treated to control. As usually defined, the IC50 is the concentration that inhibits the measured activity by half.

The experiment has as its system 282377-053-R-J1-PDC complex spheroid viability. Kind of experiment: Anticancer human tumor 282377-053-R-J1-PDC patient-derived colon adenocarcinoma cell line growth inhibition [RAS]. Conditions: for viability, T/C: stronger effect = lower value. In a few lines: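 Agents were tested in combination matrices in half-log decrements from a top concentration at or near clinical Cmax (10 microM if undetermined). Targets were multi-cell spheroids of tumour lines plus HUVEC and MSC stromal cells.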
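Note: spheroids exposed to agents for seven days before readout.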
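Throughout, for viability, T/C: luminescence viability as percent of DMSO vehicle control wells.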

With `CCN1CCN(Cc2ccc(Nc3ncc(F)c(-c4cc(F)c5nc(C)n(C(C)C)c5c4)n3)nc2)CC1`, the viability, T/C runs as follows: (compound 0.00316 µM) 105% [middle of 4 runs]; (compound 0.01 µM) 107% [middle of 4 runs]; (compound 0.316 µM) 121% and 132% (2×) and 151%; (compound 1 µM) 178% [middle of 4 runs]. Under “curve of compound”, the IC50 is more than 1000 nM.
Regarding `CCN1CCN(Cc2ccc(Nc3ncc(F)c(-c4cc(F)c5nc(C)n(C(C)C)c5c4)n3)nc2)CC1` + CCn1c(-c2cc(N3CCN(C)CC3)cnc2C(C)OC)c2c3cc(ccc31)-c1csc(n1)CC(NC(=O)C1CC1C)C(=O)N1CCCC(N1)C(=O)OCC(C)(C)C2, the IC50 reads like this: (curve of first compound, second compound 0.000949 µM) more than 1000 nM; (curve of first compound, second compound 0.003 µM) more than 1000 nM; (curve of first compound, second compound 0.00949 µM) more than 1000 nM; (curve of first compound, second compound 0.03 µM) more than 1000 nM; (curve of first compound, second compound 0.0949 µM) more than 1000 nM; (curve of first compound, second compound 0.3 µM) more than 1000 nM. Also, the viability, T/C by setting is: (second compound 0.000949 µM, first compound 0.00316 µM) 101%; (second compound 0.000949 µM, first compound 0.01 µM) 119%; (second compound 0.000949 µM, first compound 0.0316 µM) 98.1%; (second compound 0.000949 µM, first compound 0.1 µM) 120%; (second compound 0.000949 µM, first compound 0.316 µM) 188%; (second compound 0.000949 µM, first compound 1 µM) 180%. Further, the viability, T/C is 102% (second compound 0.003 µM, first compound 0.00316 µM); 137% (second compound 0.003 µM, first compound 0.01 µM); 114% (second compound 0.003 µM, first compound 0.0316 µM); 90.1% (second compound 0.003 µM, first compound 0.1 µM); 142% (second compound 0.003 µM, first compound 0.316 µM); 170% (second compound 0.003 µM, first compound 1 µM). Also, the viability, T/C reads like this: (second compound 0.00949 µM, first compound 0.00316 µM) 115%; (second compound 0.00949 µM, first compound 0.01 µM) 126%; (second compound 0.00949 µM, first compound 0.0316 µM) 96.2%; (second compound 0.00949 µM, first compound 0.1 µM) 105%; (second compound 0.00949 µM, first compound 0.316 µM) 108%; (second compound 0.00949 µM, first compound 1 µM) 194%. For the same molecule, the viability, T/C is 90.4% (second compound 0.03 µM, first compound 0.00316 µM); 106% (second compound 0.03 µM, first compound 0.01 µM); 87.7% (second compound 0.03 µM, first compound 0.0316 µM); 105% (second compound 0.03 µM, first compound 0.1 µM); 131% (second compound 0.03 µM, first compound 0.316 µM); 212% (second compound 0.03 µM, first compound 1 µM). Further, the viability, T/C (second compound 0.0949 µM, first compound 0.00316 µM) is 98.8%; the viability, T/C (second compound 0.0949 µM, first compound 0.01 µM) is 112%; the viability, T/C (second compound 0.0949 µM, first compound 0.0316 µM) was 89.8%; the viability, T/C (second compound 0.0949 µM, first compound 0.1 µM) is 123%; the viability, T/C (second compound 0.0949 µM, first compound 0.316 µM) was 146%; the viability, T/C (second compound 0.0949 µM, first compound 1 µM) is 246%. The viability, T/C by setting is: (second compound 0.3 µM, first compound 0.00316 µM) 102%; (second compound 0.3 µM, first compound 0.01 µM) 123%; (second compound 0.3 µM, first compound 0.0316 µM) 123%; (second compound 0.3 µM, first compound 0.1 µM) 119%; (second compound 0.3 µM, first compound 0.316 µM) 162%; (second compound 0.3 µM, first compound 1 µM) 227%.

The values above are taken from PubChem BioAssay AID2060905 (Molecular Pharmacology Branch, DTP, NCI, 2025).
